The values below come from paper PMC11997890, “In Vivo and In Vitro Pharmacokinetic Studies of a Dual Topoisomerase I/II Inhibitor” (ACS Pharmacology & Translational Science, 2025).

For orientation: bioavailability means the share of a dose that reaches the circulation, judged against a reference dose that is usually intravenous.

Where “and” joins values, the source holds several entries; their conditions need not be identical. Identical values can stand only once. Like-named read-outs stand apart in the source and are kept apart here.

For data set [1], the system named is OvCar8, A2780, Igrov-1 cells. Kind of data set: Metabolism in ovarian cancer cell culture supernatants (HPLC). The format is in vitro ADME, human. The note with it: for total metabolism (sum of all detected metabolites as percentage of the substrate): supernatants of OvCar8, A2780, Igrov-1 after treatment. As to the method: After treatment, the supernatants of the cell cultures were collected in order to quantify metabolites by HPLC. In Figure 3 C, the total metabolism in % (as the sum of all detected metabolites as a percentage of the substrate) is shown in dependency of the respective treatment. Overall, P8-D6 is always the most metabolized substrate at ∼5%, followed by P8-D6 N-oxide at ∼2.6% and P8-D6 mono at ∼1%. […] In contrast to previous incubation with homogenized tissue (Figure ), P8-D6 was mostly metabolized to P8-DO (2.05%) and to a lesser extent to P8-D6 mono and P8-D6 N-oxide. P8-D6 mono was converted to P8-DO and less extensively metabolized to P8-D6 and a new unknown metabolite (0.10%). Due to the increased polarity and, therefore, decreased HPLC retention time, a nitrone would be thinkable. Such reactions have been described in the literature. − However, due to the very limited content of this metabolite, it could not be identified further. During incubation with P8-D6 N-oxide, P8-D6 features the major metabolite, while P8-D6 mono and P8-DO were formed to a lesser amount. The protein expression of Cyp3A4, mARC1 and 2, and FMO3 in the cell lines used was analyzed by Western blot (Figure 3 E).
The human ovarian cancer cell lines OvCar8, Igrov-1, and A2780, purchased from ATCC, were maintained in RPMI1640 medium, including L-glutamine supplemented with 10% fetal bovine serum and 60 IU/mL penicillin–streptomycin. Cells were grown at 37 °C and 5% CO2 in a humidified incubator and subcultivated at a confluency of 70–80%. Cell line authenticity was checked by STR profiling as described previously, and mycoplasma contamination was routinely investigated using MycoAlert (Lonza).

A short description of data set [2]: In vivo plasma pharmacokinetics after i.v. and p.o. administration of P8-D6. Details: species or system Sprague–Dawley rats. The following applies: for AUC(0-t): read-out: AUC0–10 h (converted). On the procedure: The plasma concentration–time profiles and pharmacokinetic parameters of P8-D6 after p.o. and i.v. administration are presented in Figure B and Table .
Compartment models were used to calculate the pharmacokinetic parameters and plasma curves.
Since a pure drug solution of P8-D6 was administered in this study, liberation (release from the dosage form) could be neglected; therefore, first-order kinetics were assumed. […] Based on our in vivo results and assumptions, P8-D6 is first homogeneously distributed in the central compartment after application before being transferred to the peripheral compartment. Elimination occurs via the central compartment. The substance transport into, out of, and between the different compartments is characterized by the macro rate constants.
Starting with the i.v. administration, a two-compartment pharmacokinetic model was chosen that considers the biexponential decay of a fast initial first-order distribution and a slow terminal first-order elimination phase (supplied as Figure S4A,C). By this method, a fictitious initial P8-D6 plasma concentration c 0/i.v. of 4.43 μM at the time of injection was calculated (A (3.27 μM) + B (1.16 μM)). This fictitious plasma concentration corresponds to ∼1% (3.95 μmol in 8.8 mL of the theoretical plasma concentration and matches the plasma protein binding of P8-D6 of about 99% (Figure A). Based on the dose and c 0, a central V c of 0.891 L was calculated. Since the macro rate constant for distribution is considerably greater (37-fold) than the one for elimination, the elimination is the rate-determining step according to first-order kinetics.
To cope with the overlapping curves of absorption and elimination after p.o. administration, compartmental models are used (supplied as Figure S4B,D). However, since only two to three data points exist (depending on the definitive start time of the elimination) during the elimination and distribution phase (120–600 min), no differentiation between these two phases can be described by our data (as shown by the residual method in Figure S4B). Therefore, a one-compartment model according to the Bateman function with both first-order invasion and elimination rates was assumed for the p.o. administration of P8-D6 (supplied as Figure S4D). […] A fictitious initial plasma concentration, c 0/p.o. = 2.21 μM, was calculated.
Effects of the diet were reduced by fasting the rats overnight prior to P8-D6 application. Blood samples were taken at 5, 15, 30, 60, 120, 180, 300, 360, and 600 min after i.v. application or 30, 60, 90, 120, 240, and 600 min after p.o. application. Immediately afterward, the plasma was collected by centrifugation at 2000 g for 10 min. The rats were housed in metabolic cages to collect the urine in specially attached containers. Urine and feces samples were collected every 2 h. The rats were euthanized by CO2 inhalation. The harvested organs (kidney, spleen, lung, liver, and colon) were weighed and submerged in liquid nitrogen. All collected samples were stored at −80 °C until analysis.
50 μL of plasma was mixed with 100 μL of an ice-cold mixture of acetonitrile/methanol (2:1) and stirred in the vortex for 5 min. The suspension was centrifuged at 15000 g for 10 min, and 50 μL of the supernatant was injected into the HPLC (chapter Chromatographic Conditions). Calibration/control samples were prepared the same way with plasma samples collected from equal Sprague–Dawley rats from nonpharmacological studies. For calibration, the matrix was spiked with a defined concentration of the analyte. Final concentrations ranged from 0 μM to 5 μM. Triple determinations were performed and prepared on each respective day. LoD: 0.02 μM, LoQ: 0.05 μM (plasma).
For data analysis and statistics, Microsoft Excel 2019 and GraphPad Prism (version 10.2, GraphPad Software Inc., San Diego, California), commercially available software, were used. All data are expressed either as mean ± SEM or ± SD. […]

[3] abbreviates: male, Sprague-Dawley, rat, plasma, iv, 10 mg/kg, after i.v. administration of P8-D6 10 mg/kg BW, read-out: c max/i.v. of metabolite in plasma.
The mark [4] stands for this setting: male, Sprague-Dawley, rat, plasma, po, 50 mg/kg, after p.o. administration of P8-D6 50 mg/kg BW, read-out: c max/p.o. of metabolite in plasma.

Turning to `COc1cc(-c2cc3ccncc3c3nc(OCC[N+](C)(C)[O-])c4cnccc4c23)cc(OC)c1OC` [P8-D6 N-oxide], the “total metabolism (sum of all detected metabolites as percentage of the substrate)” value in data set [1] is roughly 2.6%. Further, the Cmax in data set [2] (setting [3]) was 228 nM; in data set [2] (setting [4]), 54 nM.

With `CNCCOc1nc2c3cnccc3cc(-c3cc(OC)c(OC)c(OC)c3)c2c2ccncc12` [P8-D6 mono], in data set [1], the “total metabolism (sum of all detected metabolites as percentage of the substrate)” value is roughly 1%. Besides, the Cmax in data set [2] (setting [3]) amounted to 114 nM; in data set [2] (setting [4]), 341 nM.

For `COc1cc(-c2cc3ccncc3c3nc(OCCN(C)C)c4cnccc4c23)cc(OC)c1OC` [P8-D6, 6-(N,N-dimethyl-2-aminoethoxy)-11-(3,4,5-trimethoxyphenyl)-pyrido[3,4-c][1,9]-phenanthroline], the “total metabolism (sum of all detected metabolites as percentage of the substrate)” value in data set [1] was roughly 5%. Further, the CLi.v. in data set [2] (i.v.) worked out at 6.34 mL/min. Further, the “apparent volume of distribution” value is 57.69 L/m^2 in data set [2] (i.v.) and 82.92 L/m^2 in data set [2] (p.o.). The “fictitious plasma concentration as share of theoretical plasma concentration” value in data set [2] (i.v.) is recorded as roughly 1%. In data set [2] (i.v.), the “macro rate constant for distribution greater than for elimination” value was determined as 37 fold. In addition, the c min in data set [2] (i.v. 10 mg/kg BW, plasma, 10 mg/kg) was 0.35 µM and 0.35 ± 0.05 µM; in data set [2] (p.o. 50 mg/kg BW, plasma, 50 mg/kg), 0.59 µM and 0.59 ± 0.06 µM. The CL in data set [2] (i.v., total body surface of 0.0357 m^2) was 10.66 L/(h m^2); in data set [2] (p.o.) it was 0.24 L/h; in data set [2] (p.o., total body surface of 0.0357 m^2), 6.65 L/(h m^2). The “Macro rate constant ß” value in data set [2] (i.v., two-compartment model) is recorded as 0.002 min^–1. The “Macro rate constant α” value in data set [2] (i.v., two-compartment model) was determined as 0.073 min^–1. Further, the “coefficient A” value in data set [2] (i.v., two-compartment model) was determined as 3.27 µM. Further, the “coefficient B” value in data set [2] (i.v., two-compartment model) amounted to 1.16 µM. The compound also had a clearance in data set [2] (male, Sprague-Dawley, rat, plasma, iv, 10 mg/kg body weight) of 6.33 mL/min. Moreover, the half-life in data set [2] (male, Sprague-Dawley, rat, plasma, iv, 10 mg/kg body weight, i.v., read-out: Initial t 1/2) is 9.5 min; in data set [2] (male, Sprague-Dawley, rat, plasma, iv, 10 mg/kg body weight, i.v., read-out: Terminal t 1/2) it was 347 min; in data set [2] (male, Sprague-Dawley, rat, plasma, iv, 10 mg/kg body weight, i.v., read-out: plasma half-life t 1/2 (converted)), 348 min; in data set [2] (male, Sprague-Dawley, rat, plasma, po, 50 mg/kg body weight, p.o., read-out: Terminal t 1/2), 518 min; in data set [2] (male, Sprague-Dawley, rat, plasma, po, 50 mg/kg body weight, p.o., read-out: plasma half-life t 1/2 (converted)) it was 516 min. Also, the Vd was 2.06 L and 9.36 L/kg in data set [2] (male, Sprague-Dawley, rat, plasma, iv, 10 mg/kg body weight, i.v., read-out: V d); 2.95 L and 13.4 L/kg in data set [2] (male, Sprague-Dawley, rat, plasma, iv, 10 mg/kg body weight, i.v., read-out: V ss). Further, the C0 came out at 4.43 µM in data set [2] (male, Sprague-Dawley, rat, plasma, iv, 10 mg/kg body weight, i.v., at the time of injection, two-compartment model, read-out: fictitious initial plasma concentration c 0/i.v.) and 2.21 µM in data set [2] (male, Sprague-Dawley, rat, plasma, po, 50 mg/kg body weight, p.o., one-compartment model, read-out: fictitious initial plasma concentration c 0/p.o.). The Cmax was 3950 ± 420 nM in data set [2] (male, Sprague-Dawley, rat, plasma, iv, 10 mg/kg, i.v. 10 mg/kg BW, plasma, read-out: c max); 1250 nM in data set [2] (male, Sprague-Dawley, rat, plasma, po, 50 mg/kg, p.o. 50 mg/kg BW, compartment model, read-out: c max (calculated)); 1160 nM in data set [2] (male, Sprague-Dawley, rat, plasma, po, 50 mg/kg, p.o. 50 mg/kg BW, plasma, read-out: c max (measured)). Further, the Tmax in data set [2] (male, Sprague-Dawley, rat, plasma, iv, 10 mg/kg, i.v. 10 mg/kg BW, read-out: t max) is 0 h; in data set [2] (male, Sprague-Dawley, rat, plasma, po, 50 mg/kg, p.o. 50 mg/kg BW, compartment model, read-out: t max (calculated) (converted)) it was 1.77 h; in data set [2] (male, Sprague-Dawley, rat, plasma, po, 50 mg/kg, p.o. 50 mg/kg BW, read-out: t max (measured) (converted)), 2 h. In addition, the AUC(0-t) is 7.49 µM·h in data set [2] (male, Sprague-Dawley, rat, plasma, iv, i.v. 10 mg/kg BW) and 8.03 µM·h in data set [2] (male, Sprague-Dawley, rat, plasma, po, p.o. 50 mg/kg BW). Moreover, the bioavailability in data set [2] (male, Sprague-Dawley, rat, plasma, iv, i.v. 10 mg/kg BW, read-out: Bioavailability) came out at 100%; in data set [2] (male, Sprague-Dawley, rat, plasma, oral, 50 mg/kg body weight, p.o. 50 mg/kg BW vs i.v. 10 mg/kg BW, read-out: Oral bioavailability), 21.5%. In addition, the k el in data set [2] (male, Sprague-Dawley, rat, plasma, po, 50 mg/kg body weight, p.o., one-compartment model, read-out: Macro rate constant k e) amounted to 2.17e-05 s⁻¹. Further, the CLp.o. in data set [2] (p.o.) is 3.96 mL/min. Further, the “Macro rate constant k a” value in data set [2] (p.o., one-compartment model) worked out at 0.031 min^–1. Moreover, the V ss in data set [2] (total body surface of 0.0357 m^2) amounted to 82.69 L/m^2.

In the case of `COc1cc(-c2cc3ccncc3c3[nH]c(=O)c4cnccc4c23)cc(OC)c1OC` [P8-DO], in data set [1] (OvCar8 supernatant), the “metabolite formed from P8-D6” value was determined as 2.05%. Besides, in data set [2] (after administration of P8-D6), the detection in plasma result is listed as “no P8-DO was detected”.
